Assays:
CaV1.2 = system: T1, CaV1.2; experiment: patch-clamp of heterologously expressed channel, Vh -80 mV ([…] at -50 mV); format: cell-based
T1 construct: gene CACNA1C

[1] = target: T2, CaV2.2 (N-type) calcium channel (Rattus norvegicus, UniProt Q02294); experiment: patch-clamp in HEK293 cells expressing the channel, Vh -50 mV ([…] at -80 mV); format: cell-based
T2 construct: gene Cacna1b
T2 sequence (Q02294 whole entry): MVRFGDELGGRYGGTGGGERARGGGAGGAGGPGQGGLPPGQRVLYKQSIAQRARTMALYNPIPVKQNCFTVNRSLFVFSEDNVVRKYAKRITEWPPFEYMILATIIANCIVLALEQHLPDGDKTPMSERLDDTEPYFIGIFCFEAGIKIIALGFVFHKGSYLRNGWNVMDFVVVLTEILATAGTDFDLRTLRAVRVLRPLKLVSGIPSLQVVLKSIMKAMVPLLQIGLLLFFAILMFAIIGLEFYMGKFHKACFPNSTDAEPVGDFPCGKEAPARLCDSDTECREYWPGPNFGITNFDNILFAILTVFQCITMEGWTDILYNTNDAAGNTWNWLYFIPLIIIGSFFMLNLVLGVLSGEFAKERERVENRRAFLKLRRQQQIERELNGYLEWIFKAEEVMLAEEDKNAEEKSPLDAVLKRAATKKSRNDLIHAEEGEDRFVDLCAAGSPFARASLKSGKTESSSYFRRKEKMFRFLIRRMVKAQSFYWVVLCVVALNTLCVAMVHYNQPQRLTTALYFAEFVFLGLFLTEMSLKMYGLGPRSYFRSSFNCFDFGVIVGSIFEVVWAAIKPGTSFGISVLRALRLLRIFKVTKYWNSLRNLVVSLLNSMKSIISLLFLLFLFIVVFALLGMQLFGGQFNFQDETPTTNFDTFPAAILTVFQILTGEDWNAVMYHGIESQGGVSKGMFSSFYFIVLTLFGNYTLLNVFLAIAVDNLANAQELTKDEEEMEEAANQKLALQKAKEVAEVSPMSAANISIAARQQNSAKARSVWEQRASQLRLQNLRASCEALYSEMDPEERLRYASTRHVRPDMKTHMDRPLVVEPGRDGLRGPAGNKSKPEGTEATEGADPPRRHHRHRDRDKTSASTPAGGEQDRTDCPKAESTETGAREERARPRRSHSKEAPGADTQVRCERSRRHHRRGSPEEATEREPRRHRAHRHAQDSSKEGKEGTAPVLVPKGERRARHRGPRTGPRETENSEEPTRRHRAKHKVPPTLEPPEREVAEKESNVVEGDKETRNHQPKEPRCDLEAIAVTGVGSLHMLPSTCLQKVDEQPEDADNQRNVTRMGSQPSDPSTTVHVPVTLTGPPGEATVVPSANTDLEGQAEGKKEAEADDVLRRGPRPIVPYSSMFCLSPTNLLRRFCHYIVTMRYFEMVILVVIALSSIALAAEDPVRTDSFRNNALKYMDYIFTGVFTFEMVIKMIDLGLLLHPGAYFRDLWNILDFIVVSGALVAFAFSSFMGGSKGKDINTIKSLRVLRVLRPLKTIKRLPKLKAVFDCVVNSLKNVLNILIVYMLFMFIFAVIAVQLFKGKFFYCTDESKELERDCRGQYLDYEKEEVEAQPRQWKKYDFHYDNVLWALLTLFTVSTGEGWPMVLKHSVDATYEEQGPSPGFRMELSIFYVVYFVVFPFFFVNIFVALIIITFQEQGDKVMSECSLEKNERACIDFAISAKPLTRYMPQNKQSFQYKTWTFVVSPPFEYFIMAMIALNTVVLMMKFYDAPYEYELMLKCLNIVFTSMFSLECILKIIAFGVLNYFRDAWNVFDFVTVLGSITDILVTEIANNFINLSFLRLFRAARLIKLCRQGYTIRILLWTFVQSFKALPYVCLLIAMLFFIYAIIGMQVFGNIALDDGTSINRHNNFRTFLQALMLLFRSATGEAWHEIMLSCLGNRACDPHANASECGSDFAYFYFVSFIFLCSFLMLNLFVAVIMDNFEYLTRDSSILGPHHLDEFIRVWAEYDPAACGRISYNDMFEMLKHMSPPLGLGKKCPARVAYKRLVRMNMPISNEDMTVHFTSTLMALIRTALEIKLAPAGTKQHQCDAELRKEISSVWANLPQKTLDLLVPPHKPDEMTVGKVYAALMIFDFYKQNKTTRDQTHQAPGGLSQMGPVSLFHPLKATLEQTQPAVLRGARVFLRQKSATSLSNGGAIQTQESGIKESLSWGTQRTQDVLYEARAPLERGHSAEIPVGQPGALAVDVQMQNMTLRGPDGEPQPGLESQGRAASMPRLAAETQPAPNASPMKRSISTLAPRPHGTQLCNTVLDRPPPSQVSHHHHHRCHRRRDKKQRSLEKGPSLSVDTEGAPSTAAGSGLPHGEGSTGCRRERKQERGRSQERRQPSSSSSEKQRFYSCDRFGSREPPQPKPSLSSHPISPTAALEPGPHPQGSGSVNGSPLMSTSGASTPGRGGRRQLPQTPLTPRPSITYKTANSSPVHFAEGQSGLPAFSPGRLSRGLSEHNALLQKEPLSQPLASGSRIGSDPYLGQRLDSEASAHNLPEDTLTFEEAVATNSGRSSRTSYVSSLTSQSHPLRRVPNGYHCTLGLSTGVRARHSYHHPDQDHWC

IC50 [1]: 1.3 ± 0.1 µM
SMILES: COc1ccc(OCC(O)CNC2CCCC2)c(C(C)(C)C)c1 (racemic) [C2230, 1-(2-tert-butyl-4-methoxyphenoxy)-3-(cyclopentylamino)propan-2-ol]
IC50 (CaV1.2): 22.7 ± 6.3 µM

— article PMC11827853, “C2230, a preferential use- and state-dependent CaV2.2 channel blocker, mitigates pain behaviors across multiple pain models” (The Journal of Clinical Investigation, 2024)
